± gives the expanded uncertainty stated by the source.
Conditions: 101.33 kPa, Liquid; for viscosity: Capillary tube (Ostwald / Ubbelohde) method

| SMILES | mass density (293.15 K) | viscosity (293.15 K) | mass density (303.15 K) | viscosity (303.15 K) | mass density (313.15 K) | viscosity (313.15 K) | mass density (323.15 K) | viscosity (323.15 K) | mass density (293.15 K, Vibrating tube method) | mass density (303.15 K, Vibrating tube method) | mass density (313.15 K, Vibrating tube method) | mass density (323.15 K, Vibrating tube method) |
| --- | --- | --- | --- | --- | --- | --- | --- | --- | --- | --- | --- | --- |
| CCC(O)CO (configuration not stated) [1,2-butanediol] | 1002.43 ± 0.54 kg/m3 | 71.87 ± 0.69 mPa·s | 994.98 ± 0.54 kg/m3 | 37.86 ± 0.28 mPa·s | 987.39 ± 0.55 kg/m3 | 21.49 ± 0.16 mPa·s | 979.64 ± 0.56 kg/m3 | 13.12 ± 0.1 mPa·s |  |  |  |  |
| CCCCC(O)CO (configuration not stated) [1,2-hexanediol] | 951.86 ± 2.3 kg/m3 | 83.41 ± 1.6 mPa·s | 944.66 ± 2.3 kg/m3 | 42.25 ± 0.67 mPa·s | 937.34 ± 2.3 kg/m3 | 24.12 ± 0.39 mPa·s | 929.9 ± 2.3 kg/m3 | 14.79 ± 0.24 mPa·s |  |  |  |  |
| CC(O)CO (configuration not stated) [1,2-propanediol] | 1036.3 ± 0.6 kg/m3 | 56.21 ± 0.32 mPa·s | 1028.92 ± 0.58 kg/m3 | 32.63 ± 0.24 mPa·s | 1021.39 ± 0.57 kg/m3 | 19.58 ± 0.15 mPa·s | 1013.7 ± 0.56 kg/m3 | 12.79 ± 0.1 mPa·s |  |  |  |  |
| CCCC(O)CO (configuration not stated) [1,2-pentanediol] |  | 76.96 ± 2.1 mPa·s |  | 39.16 ± 1 mPa·s |  | 22.52 ± 0.58 mPa·s |  | 13.66 ± 0.35 mPa·s | 970.35 ± 5.1 kg/m3 | 963.07 ± 5 kg/m3 | 955.65 ± 5 kg/m3 | 948.12 ± 4.9 kg/m3 |
